Like-named read-outs stand apart in the source and are kept apart here. Each block holds one molecule with its values, some of them ahead of it.
How the values were obtained:
[1] = In vitro drug skin accumulation assay (tape-stripped skin after 50-hour diffusion); type: in vitro ADME, Hamster; conditions: for % Skin Deposition: skin after tape stripping of stratum corneum
Experimental: The penetration studies were carried out using Franz chambers.
After the 50-hour receiver fluid sample was taken, the diffusion set-up was dismantled. The skin section was mounted on a board and the stratum corneum skin layer was removed by tape stripping (3M Magic Tape 810). The section of the remaining skin exposed to the receiver fluid was isolated, placed in a vial containing 1 ml of Beckman Tissue Solubilizer-450, shaken for 4 days, and the resulting solution was assayed for the radiolabeled drug.

[2] = Experimental: The penetration studies were carried out using Franz chambers. Hamster skin (non-flank organ region) was clipped and appropriate size pieces then cut and mounted between the lower and upper Franz cell chambers. The lower and upper chambers (with the skin in between) were then securely clamped together. A small magnetic stir bar was placed in the bottom of each chamber, 80 μL of 100× sodium azide to a final concentration of 0.2% was added as an anti-microbial agent, then the lower chamber was filled with phosphate buffered saline (PBS). PBS is added until the level in the side arm is just level with the mounted skin, slightly inverting the cells as necessary to remove any air bubbles that might occur. The Franz chambers are then placed in the appropriate size heating blocks and allowed to stand overnight at room temperature. […] Similarly, 20-40 μL of a 1% test formulation was applied over 8-10 chambers. Four hundred μL of the receptor fluid from the lower chamber was removed at 2, 4, 6, 8, 24 and 50 hours and placed in a scintillation vial. This PBS was then replaced with 400 μL of fresh PBS.
[3] = Ionization constants by potentiometric titration; type: physicochemical
Experimental: Although Schiff base formation is possible at both amino groups, sufficient selectivity can be achieved under buffered conditions or by terminating the reaction at an appropriate time. […] Three constants were obtained: pK1=0.084, pK2=6.437, pK3=10.393. Mono-conjugated Schiff base was prepared by reaction with a selected aldehyde or ketone under controlled buffer conditions.

SMILES: NCCC[C@](N)(C(=O)O)C(F)F [DFMO, α-Difluoromethylornithine]
Ionization constant pK1 [3]: 0.084
Ionization constant pK2 [3]: 6.437
Ionization constant pK3 [3]: 10.393

SMILES: COC(=O)C(N)(CCCN)C(F)F (centres unmarked) [DFMO-OMe, 2,5-diamino-2-difluoromethyl-pentanoic acid methyl ester]
Rate of Penetration ([2]; hamster, 4 h, 1 % formulation): 0.23 ± 0.18
Rate of Penetration ([2]; hamster, 6 h, 1 % formulation): 0.21 ± 0.16
Rate of Penetration ([2]; hamster, 24 h, 1 % formulation): 0.2 ± 0.13

SMILES: CC(C)c1ccc(C=NCCCC(N)(C(=O)O)C(F)F)cc1 (centres unmarked) [IPB-DFMO, 2-amino-2-difluoromethyl-5-[(4-isopropyl-benzylidene)-amino]-pentanoic acid]
Skin penetration, % of applied dose after 24 hr ([2]; hamster, 24 h, 1 % formulation): 3.31 ± 0.98 % of applied dose

SMILES: Cc1cc(C)c(C=NCCCC(N)(C(=O)O)C(F)F)c(C)c1 (centres unmarked) [M-DFMO, 2-amino-2-difluoromethyl-5-[(2,4,6-trimethyl-benzylidene)-amino]-pentanoic acid]
Skin penetration, % of applied dose after 24 hr ([2]; hamster, 24 h, 1 % formulation): 6.68 ± 1.68 % of applied dose

SMILES: COc1cc(C=NCCCC(N)(C(=O)O)C(F)F)ccc1O (centres unmarked) [V-DFMO, 2-amino-2-difluoromethyl-5-[(4-hydroxy-3-methoxy-benzylidene)-amino]-pentanoic acid]
Relative Deposition (fold increase over unconjugated DFMO) [1]: 1.2 fold
% Skin Deposition [1]: 0.96 ± 0.6%
Skin penetration, % of applied dose after 24 hr ([2]; hamster, 24 h, 1 % formulation): 3.34 ± 1.97 % of applied dose

Now from value to molecule:

Relative Deposition (fold increase over unconjugated DFMO) [1]: 7.4 fold
% Skin Deposition [1]: 5.92 ± 4.0%
Initial Rate of Penetration ([2]; hamster, 2 h, 1 % formulation): 1.24 ± 1.16
Initial Rate of Penetration ([2]; hamster, 4 h, 1 % formulation): 1.65 ± 1.48
Initial Rate of Penetration ([2]; hamster, 6 h, 1 % formulation): 1.71 ± 1.50
Level of radiolabeled drug in the receptor fluid ([2]; hamster, 24 h, 1 % formulation): 10±1 % of the applied dose
Skin penetration, % of applied dose after 24 hr ([2]; hamster, 24 h, 1 % formulation): 9.63 ± 1.31 % of applied dose
Level of radiolabeled drug in the receptor fluid ([2]; hamster, 50 h, 1 % formulation): 16±3 % of the applied dose
SMILES: NC(CCCN=Cc1ccccc1)(C(=O)O)C(F)F (centres unmarked) [B-DFMO, 2-amino-5-(benzylidene-amino)-2-difluoromethyl-pentanoic acid]

Relative Deposition (fold increase over unconjugated DFMO) [1]: 5.0 fold
% Skin Deposition [1]: 4.00 ± 3.0%
Skin penetration, % of applied dose after 24 hr ([2]; hamster, 24 h, 1 % formulation): 3.28 ± 0.88 % of applied dose
SMILES: CC(C=NCCCC(N)(C(=O)O)C(F)F)=Cc1ccccc1 (centres unmarked) [MCA-DFMO, 2-amino-2-difluoromethyl-5-(2-methyl-3-phenyl-allylideneamino)-pentanoic acid]

Skin penetration, % of applied dose after 24 hr [2]: 3.91 ± 0.71 % of applied dose
SMILES: NC(CCCN=Cc1ccc2ccccc2c1)(C(=O)O)C(F)F (centres unmarked) [N-DFMO, 2-amino-2-difluoromethyl-5-[([…]aphthalene-2-ylmethylene)-amino]-pentanoic acid]

From patent publication US7345192B2, “Reduction of hair growth” (The Gillette Company, priority 2005, dated 2008)
